Experimental data as given in publication PMC6540285, “Evaluation of Protein Kinase Inhibitors with PLK4 Cross-Over Potential in a Pre-Clinical Model of Cancer” (International Journal of Molecular Sciences, 2019).

Tests used:
DAPK1 = DAPK1 (Homo sapiens, UniProt P53355); test: SelectScreen kinase profiling, Adapta; type: biochemical; conditions: DAPK1, 10 µM
MAP2K1 (MEK1) = MAP2K1 (MEK1) (Homo sapiens, UniProt Q02750); test: SelectScreen kinase profiling, ZLYTE; type: biochemical
PDGFRB (PDGFR beta) = PDGFRB (PDGFR beta) (Homo sapiens, UniProt P09619); test: SelectScreen kinase profiling, ZLYTE; type: biochemical
P450 2C19 = P450 2C19 (Homo sapiens, UniProt P33261); test: SelectScreen P450 Vivid biochemical assay; conditions: 10000nM; substrate EOMCC
CDK6/cyclin D1 = CDK6/cyclin D1 (Homo sapiens, UniProt Q00534); test: SelectScreen kinase profiling, Adapta; type: biochemical; conditions: CDK6/cyclin D1, 10 µM
FLT4 (VEGFR3) = FLT4 (VEGFR3) (Homo sapiens, UniProt P35916); test: SelectScreen kinase profiling, ZLYTE; type: biochemical
AXL R499C = AXL R499C (Homo sapiens, UniProt P30530, R499C); test: SelectScreen kinase profiling, LanthaScreen binding
BMPR1A (ALK3) = BMPR1A (ALK3) (Homo sapiens, UniProt P36894); test: as above
ACVR2B = ACVR2B (Homo sapiens, UniProt Q13705); test: as above
MAPK9 (JNK2) = MAPK9 (JNK2) (Homo sapiens, UniProt P45984); test: SelectScreen kinase profiling, ZLYTE; type: biochemical
AXL = AXL (Homo sapiens, UniProt P30530); test: SelectScreen kinase profiling, ZLYTE; type: biochemical
PI4K2A (PI4K2 alpha) = PI4K2A (PI4K2 alpha) (Homo sapiens, UniProt Q9BTU6); test: SelectScreen kinase profiling, Adapta; type: biochemical
BRAF V599E = BRAF V599E (Homo sapiens, UniProt P15056, V600E); test: SelectScreen kinase profiling, LanthaScreen binding
IRAK4 = IRAK4 (Homo sapiens, UniProt Q9NWZ3); test: SelectScreen kinase profiling, ZLYTE; type: biochemical; conditions: IRAK4, 10 µM
IGF1R = IGF1R (Homo sapiens, UniProt P08069); test: SelectScreen kinase profiling, ZLYTE; type: biochemical
RET V804E = RET V804E (Homo sapiens, UniProt P07949, V804E); test: SelectScreen kinase profiling, ZLYTE; type: biochemical
JAK3 = JAK3 (Homo sapiens, UniProt P52333); test: SelectScreen kinase profiling, ZLYTE; type: biochemical; conditions: JAK3, 10 µM
CDK13/cyclin K = CDK13/cyclin K (Homo sapiens, UniProt Q14004); test: SelectScreen kinase profiling, LanthaScreen binding; conditions: read-out: % Inhibition Avg
LATS1 = LATS1 (Homo sapiens, UniProt O95835); test: as above; conditions: LATS1, 10 µM
EPHA4 = EPHA4 (Homo sapiens, UniProt P54764); test: SelectScreen kinase profiling, ZLYTE; type: biochemical; conditions: EPHA4, 10 µM
GRK7 = GRK7 (Homo sapiens, UniProt Q8WTQ7); test: SelectScreen kinase profiling, ZLYTE; type: biochemical; conditions: GRK7, 10 µM
PI4KA (PI4K alpha) = PI4KA (PI4K alpha) (Homo sapiens, UniProt P42356); test: SelectScreen kinase profiling, Adapta; type: biochemical
PHKG1 = PHKG1 (Homo sapiens, UniProt Q16816); test: SelectScreen kinase profiling, ZLYTE; type: biochemical; conditions: PHKG1, 10 µM
FRAP1 (mTOR) = FRAP1 (mTOR) (Homo sapiens, UniProt P42345); test: SelectScreen kinase profiling, ZLYTE; type: biochemical
AURKC (Aurora C) = AURKC (Aurora C) (Homo sapiens, UniProt Q9UQB9); test: SelectScreen kinase profiling, ZLYTE; type: biochemical
FGFR1 V561M = FGFR1 V561M (Homo sapiens, UniProt P11362, V561M); test: SelectScreen kinase profiling, LanthaScreen binding
CSK = CSK (Homo sapiens, UniProt P41240); test: SelectScreen kinase profiling, ZLYTE; type: biochemical
MAP3K9 (MLK1) = MAP3K9 (MLK1) (Homo sapiens, UniProt P80192); test: SelectScreen kinase profiling, ZLYTE; type: biochemical
CAMK2B (CaMKII beta) = CAMK2B (CaMKII beta) (Homo sapiens, UniProt Q13554); test: SelectScreen kinase profiling, ZLYTE; type: biochemical
STK38 (NDR) = STK38 (NDR) (Homo sapiens, UniProt Q15208); test: SelectScreen kinase profiling, LanthaScreen binding
PRKACG (PRKAC gamma) = PRKACG (PRKAC gamma) (Homo sapiens, UniProt P22612); test: as above
FYN A = FYN A (Homo sapiens, UniProt P06241); test: as above
[1] = molecular target: MAP3K7/MAP3K7IP1 (TAK1-TAB1) (Homo sapiens, UniProt O43318); test: as above
MAPK15 (ERK7) = MAPK15 (ERK7) (Homo sapiens, UniProt Q8TD08); test: as above
TGFBR1 (ALK5) = TGFBR1 (ALK5) (Homo sapiens, UniProt P36897); test: as above
Excerpt: Kinase Technology % Inhibition Avg Kinase Technology % Inhibition Avg

hERG channel = hERG channel (Homo sapiens, UniProt Q12809); test: Predictor hERG fluorescence polarization assay; conditions: 10000nM
ABL1 M351T = ABL1 M351T (Homo sapiens, UniProt P00519, M351T); test: SelectScreen kinase profiling, LanthaScreen binding

Chain of AXL (P30530 26-894): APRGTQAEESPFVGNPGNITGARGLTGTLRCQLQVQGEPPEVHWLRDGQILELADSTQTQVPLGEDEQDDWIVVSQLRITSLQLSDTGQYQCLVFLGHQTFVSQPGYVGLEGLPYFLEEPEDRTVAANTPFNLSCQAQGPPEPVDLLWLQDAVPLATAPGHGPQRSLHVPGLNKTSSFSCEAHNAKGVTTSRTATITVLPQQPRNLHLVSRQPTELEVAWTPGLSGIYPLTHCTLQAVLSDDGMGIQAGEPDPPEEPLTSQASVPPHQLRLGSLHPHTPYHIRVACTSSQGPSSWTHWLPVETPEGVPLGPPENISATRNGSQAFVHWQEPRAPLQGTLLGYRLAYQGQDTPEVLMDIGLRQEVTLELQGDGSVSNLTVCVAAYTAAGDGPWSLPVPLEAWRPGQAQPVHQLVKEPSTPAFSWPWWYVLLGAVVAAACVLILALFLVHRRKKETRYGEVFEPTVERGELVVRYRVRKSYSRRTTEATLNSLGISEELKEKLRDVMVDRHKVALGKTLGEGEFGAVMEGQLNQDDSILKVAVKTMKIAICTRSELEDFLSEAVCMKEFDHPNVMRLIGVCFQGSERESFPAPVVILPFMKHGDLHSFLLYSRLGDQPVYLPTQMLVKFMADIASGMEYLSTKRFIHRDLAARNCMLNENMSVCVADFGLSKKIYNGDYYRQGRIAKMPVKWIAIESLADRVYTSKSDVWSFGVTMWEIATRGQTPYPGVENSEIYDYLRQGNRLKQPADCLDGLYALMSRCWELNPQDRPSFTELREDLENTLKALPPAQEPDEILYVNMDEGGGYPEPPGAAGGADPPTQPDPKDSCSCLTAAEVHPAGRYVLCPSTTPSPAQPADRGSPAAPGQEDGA
Chain of BRAF V599E (P15056 416-766 V600E limits assumed): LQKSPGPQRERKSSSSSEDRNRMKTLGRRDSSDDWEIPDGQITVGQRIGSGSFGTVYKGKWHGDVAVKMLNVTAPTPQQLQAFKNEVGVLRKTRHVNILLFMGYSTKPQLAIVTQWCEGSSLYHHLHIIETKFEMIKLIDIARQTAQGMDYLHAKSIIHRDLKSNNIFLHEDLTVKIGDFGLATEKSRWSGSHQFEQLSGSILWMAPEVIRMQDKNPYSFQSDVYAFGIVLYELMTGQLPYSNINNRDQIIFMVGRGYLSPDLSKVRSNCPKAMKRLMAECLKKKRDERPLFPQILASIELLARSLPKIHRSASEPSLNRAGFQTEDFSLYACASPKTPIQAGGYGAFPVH
Chain of MAPK15 (ERK7) (Q8TD08 whole entry): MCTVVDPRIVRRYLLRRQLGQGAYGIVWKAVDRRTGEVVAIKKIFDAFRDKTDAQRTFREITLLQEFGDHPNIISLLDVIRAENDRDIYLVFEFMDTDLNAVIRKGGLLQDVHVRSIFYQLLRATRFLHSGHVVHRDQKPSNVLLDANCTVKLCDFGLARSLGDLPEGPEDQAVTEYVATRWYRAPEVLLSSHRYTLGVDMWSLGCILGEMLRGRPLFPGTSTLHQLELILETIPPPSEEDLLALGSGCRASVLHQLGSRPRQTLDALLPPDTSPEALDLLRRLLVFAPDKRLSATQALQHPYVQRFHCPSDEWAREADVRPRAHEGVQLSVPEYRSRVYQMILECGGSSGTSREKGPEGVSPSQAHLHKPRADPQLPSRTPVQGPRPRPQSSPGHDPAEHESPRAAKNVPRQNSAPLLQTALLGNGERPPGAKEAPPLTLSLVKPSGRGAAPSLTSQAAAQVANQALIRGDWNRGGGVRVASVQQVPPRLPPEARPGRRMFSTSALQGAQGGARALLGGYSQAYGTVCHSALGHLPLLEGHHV
Chain of RET V804E (P07949 29-1114 V804E): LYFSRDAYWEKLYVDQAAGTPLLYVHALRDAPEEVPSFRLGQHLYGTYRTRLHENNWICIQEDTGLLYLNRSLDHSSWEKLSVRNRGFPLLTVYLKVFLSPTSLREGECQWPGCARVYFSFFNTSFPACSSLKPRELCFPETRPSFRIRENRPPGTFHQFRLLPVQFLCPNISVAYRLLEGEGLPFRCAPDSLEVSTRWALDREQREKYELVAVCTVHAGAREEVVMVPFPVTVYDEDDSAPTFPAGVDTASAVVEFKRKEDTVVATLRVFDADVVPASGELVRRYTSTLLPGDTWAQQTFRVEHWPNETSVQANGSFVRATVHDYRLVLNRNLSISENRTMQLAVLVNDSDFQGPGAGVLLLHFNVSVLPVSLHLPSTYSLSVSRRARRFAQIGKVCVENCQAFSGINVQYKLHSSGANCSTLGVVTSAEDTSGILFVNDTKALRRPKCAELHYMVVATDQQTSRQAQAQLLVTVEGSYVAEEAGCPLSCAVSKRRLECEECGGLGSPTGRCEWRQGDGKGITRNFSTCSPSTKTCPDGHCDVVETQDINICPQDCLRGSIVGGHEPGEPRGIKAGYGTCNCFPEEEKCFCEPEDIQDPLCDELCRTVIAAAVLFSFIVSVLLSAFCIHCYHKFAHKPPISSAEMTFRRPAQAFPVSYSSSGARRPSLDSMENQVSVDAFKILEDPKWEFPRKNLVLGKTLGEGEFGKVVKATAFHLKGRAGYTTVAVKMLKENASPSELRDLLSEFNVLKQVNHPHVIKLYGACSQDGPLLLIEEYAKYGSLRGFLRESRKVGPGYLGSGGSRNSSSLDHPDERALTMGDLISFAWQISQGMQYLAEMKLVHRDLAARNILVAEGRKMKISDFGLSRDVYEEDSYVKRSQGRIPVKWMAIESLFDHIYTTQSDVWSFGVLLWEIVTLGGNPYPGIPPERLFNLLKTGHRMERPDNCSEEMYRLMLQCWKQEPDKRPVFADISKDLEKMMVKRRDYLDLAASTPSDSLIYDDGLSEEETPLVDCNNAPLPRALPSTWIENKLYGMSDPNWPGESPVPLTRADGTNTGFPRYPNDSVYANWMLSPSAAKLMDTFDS
Chain of CSK (P41240 whole entry): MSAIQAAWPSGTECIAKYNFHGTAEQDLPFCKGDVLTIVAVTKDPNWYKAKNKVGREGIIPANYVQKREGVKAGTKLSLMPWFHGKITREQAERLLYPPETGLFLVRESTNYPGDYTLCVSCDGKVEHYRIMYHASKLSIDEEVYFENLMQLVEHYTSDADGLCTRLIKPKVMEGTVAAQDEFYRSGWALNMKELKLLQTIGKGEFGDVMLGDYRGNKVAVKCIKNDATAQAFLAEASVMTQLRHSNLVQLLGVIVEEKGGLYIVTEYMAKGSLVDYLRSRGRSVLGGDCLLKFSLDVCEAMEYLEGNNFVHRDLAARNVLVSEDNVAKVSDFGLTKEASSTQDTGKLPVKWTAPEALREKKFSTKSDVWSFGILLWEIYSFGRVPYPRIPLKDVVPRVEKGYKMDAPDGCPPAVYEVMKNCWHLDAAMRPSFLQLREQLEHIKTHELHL
Chain of MAP3K7/MAP3K7IP1 (TAK1-TAB1) (O43318 1-303 limits assumed): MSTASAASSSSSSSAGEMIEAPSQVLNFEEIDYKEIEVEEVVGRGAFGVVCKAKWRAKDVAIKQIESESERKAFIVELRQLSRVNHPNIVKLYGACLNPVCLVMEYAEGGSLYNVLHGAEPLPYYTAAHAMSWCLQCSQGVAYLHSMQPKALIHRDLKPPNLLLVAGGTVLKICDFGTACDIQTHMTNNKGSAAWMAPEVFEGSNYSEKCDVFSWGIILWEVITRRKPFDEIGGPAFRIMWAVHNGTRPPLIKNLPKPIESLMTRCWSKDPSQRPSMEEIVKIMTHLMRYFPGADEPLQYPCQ
Chain of MAP3K7/MAP3K7IP1 (TAK1-TAB1) (Q15750 437-504 partner limits assumed): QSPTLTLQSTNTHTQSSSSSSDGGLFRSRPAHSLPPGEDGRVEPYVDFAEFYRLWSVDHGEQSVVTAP
Chain of STK38 (NDR) (Q15208 whole entry): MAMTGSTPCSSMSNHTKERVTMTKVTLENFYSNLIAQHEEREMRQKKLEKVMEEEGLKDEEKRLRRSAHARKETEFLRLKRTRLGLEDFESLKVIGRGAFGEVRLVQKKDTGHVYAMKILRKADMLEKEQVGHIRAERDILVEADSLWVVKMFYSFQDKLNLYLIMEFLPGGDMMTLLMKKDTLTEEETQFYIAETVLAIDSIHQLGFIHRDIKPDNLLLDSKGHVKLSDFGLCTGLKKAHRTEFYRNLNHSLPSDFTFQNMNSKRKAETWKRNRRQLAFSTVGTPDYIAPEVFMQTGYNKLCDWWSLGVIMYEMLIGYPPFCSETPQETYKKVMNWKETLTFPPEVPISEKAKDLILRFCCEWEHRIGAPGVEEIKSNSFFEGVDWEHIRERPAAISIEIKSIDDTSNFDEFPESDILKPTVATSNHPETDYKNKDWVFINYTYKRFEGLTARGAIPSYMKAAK
Chain of MAPK9 (JNK2) (P45984 whole entry): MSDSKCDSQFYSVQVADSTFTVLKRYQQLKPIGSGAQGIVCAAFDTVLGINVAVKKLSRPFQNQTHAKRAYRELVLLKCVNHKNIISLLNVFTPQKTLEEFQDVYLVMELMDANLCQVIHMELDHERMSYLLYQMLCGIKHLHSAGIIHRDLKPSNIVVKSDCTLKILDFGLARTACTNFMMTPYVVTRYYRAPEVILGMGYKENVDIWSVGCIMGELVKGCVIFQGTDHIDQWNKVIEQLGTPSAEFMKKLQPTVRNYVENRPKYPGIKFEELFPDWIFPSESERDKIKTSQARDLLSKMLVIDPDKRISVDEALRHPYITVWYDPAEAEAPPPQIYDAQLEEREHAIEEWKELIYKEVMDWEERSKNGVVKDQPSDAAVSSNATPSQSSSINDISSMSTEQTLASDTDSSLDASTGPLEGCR
Chain of AURKC (Aurora C) (Q9UQB9 whole entry): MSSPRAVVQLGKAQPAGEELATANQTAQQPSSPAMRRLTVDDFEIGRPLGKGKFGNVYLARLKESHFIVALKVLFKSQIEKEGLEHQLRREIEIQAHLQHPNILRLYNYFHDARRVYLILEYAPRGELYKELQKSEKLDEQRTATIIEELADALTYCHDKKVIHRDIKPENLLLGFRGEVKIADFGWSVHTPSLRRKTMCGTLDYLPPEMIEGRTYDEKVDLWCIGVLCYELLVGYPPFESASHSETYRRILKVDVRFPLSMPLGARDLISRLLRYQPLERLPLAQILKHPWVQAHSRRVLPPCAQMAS
Chain of AXL R499C (P30530 26-894 R499C): as the sequence (P30530 26-894) above, with R474C counted along it

Structure (SMILES): O=C(c1ccc(/C=C/c2n[nH]c3ccccc23)cc1)N1CCNCC1 [KW-2449]
- inhibition at 10 µM (DAPK1): 90%
- inhibition at 10 µM (MAP2K1 (MEK1)): 72%
- inhibition at 10 µM (PDGFRB (PDGFR beta)): 76%
- % Inhibition 2C19 EOMCC (P450 2C19): 51%
- inhibition at 10 µM (CDK6/cyclin D1): 82%
- inhibition at 10 µM (FLT4 (VEGFR3)): 95%
- inhibition at 10 µM (AXL R499C): 45%
- inhibition at 10 µM (BMPR1A (ALK3)): 98%
- inhibition at 10 µM (ACVR2B): 94%
- inhibition at 10 µM (MAPK9 (JNK2)): 87%
- inhibition at 10 µM (AXL): 95%
- inhibition at 10 µM (PI4K2A (PI4K2 alpha)): 4%
- inhibition at 10 µM (BRAF V599E): 6%
- inhibition at 10 µM (IRAK4): 77%
- inhibition at 10 µM (IGF1R): 95%
- inhibition at 10 µM (RET V804E): 94%
- inhibition at 10 µM (JAK3): 98%
- inhibition at 10 µM (CDK13/cyclin K): 70%
- inhibition at 10 µM (LATS1): -17%
- inhibition at 10 µM (EPHA4): 83%
- inhibition at 10 µM (GRK7): 41%
- inhibition at 10 µM (PI4KA (PI4K alpha)): 7%
- inhibition at 10 µM (PHKG1): 100%
- inhibition at 10 µM (FRAP1 (mTOR)): 9%
- inhibition at 10 µM (AURKC (Aurora C)): 98%
- inhibition at 10 µM (FGFR1 V561M): 30%
- inhibition at 10 µM (CSK): 71%
- inhibition at 10 µM (MAP3K9 (MLK1)): 102%
- inhibition at 10 µM (CAMK2B (CaMKII beta)): 32%
- inhibition at 10 µM (STK38 (NDR)): 85%
- inhibition at 10 µM (PRKACG (PRKAC gamma)): 18%
- inhibition at 10 µM (FYN A): 72%
- inhibition at 10 µM [1]: 26%
- inhibition at 10 µM (MAPK15 (ERK7)): -49%
- inhibition at 10 µM (TGFBR1 (ALK5)): 85%
- hERG % Inhibition (hERG channel): 19%
- inhibition at 10 µM (ABL1 M351T): 52%
